Experimental data from patent publication US20080044904A1, “Glyphosate N-acetyltransferase (GAT) confers glyphosate resistance when expressed in plastids” (priority 2005, published 2008).

Columns and labels:
wild-type leaf sections = assay: Leaf section test on RMOP culture medium containing glyphosate, wild type control; format: cell-based, tobacco; conditions: RMOP medium containing 100 μm glyphosate (Glyphosate-isopropylammonium); three-week-old cultures
Text: (§1) Shown are three-week-old cultures initiated from Nt-pMHB125 and Nt-pMHB126 leaves and wild type control. The culture medium and general tissue culture protocols are described in references Svab and Maliga, 1993; and Lutz et al., 2006.
(§2) The ability of leaf sections or stem sections of plants to germinate and/or grow as green plants in a culture containing selective levels of herbicides is a reliable assay of glyphosate resistance (Ye et al. (2003) Plant Physiol., 133:402-410; Ye et al. (2001) Plant J., 25:261-270). Selective levels of glyphosate in the culture medium were in the range of 50 μm to 200 μm, to which plants expressing the CP4 EPSPS gene were resistant. Therefore, sections of the Nt-pMHB125, Nt-pMHB126 and Nt-pMHB127 leaves were inoculated onto RMOP medium containing 100 μm glyphosate (Glyphosate-isopropylammonium). […] Such high level of resistance was sufficient to protect the plants from glyphosate treatment under filed conditions. The new glyphosate resistance (GAT) genes, when expressed in plastids, enable efficient weed control with an environmentally friendly herbicide. Since plastids are not transmitted via pollen in most crops, the GAT gene will not be disseminated via pollen, providing an efficient containment tool (Bock, R. (2001) J. Mol. Biol., 312:425-438; Maliga, P. (2004) Annu. Rev. Plant Biol., 55:289-313).

[1] = test system: Nt-pMHB125 and Nt-pMHB126 leaves (tobacco cells expressing GAT in chloroplasts); assay: Leaf section test on RMOP culture medium containing glyphosate, plants expressing GAT in chloroplasts; format: cell-based
Text: as §1, §2

O=C(O)CNCP(=O)(O)O [glyphosate, N-phosphonomethylglycine]
growth of wild-type leaf sections in the presence of the herbicide (wild-type leaf sections): failed to grow and bleached | resistance of tobacco cells expressing GAT in chloroplasts ([1]; 100 μM glyphosate in the RMOP culture medium, three-week-old cultures from Nt-pMHB125 and Nt-pMHB126 leaves): resistant | growth of Nt-pMHB125 and Nt-pMHB126 leaf sections in the presence of the herbicide ([1]; RMOP medium containing 100 μm glyphosate (Glyphosate-isopropylammonium), three-week-old cultures): formed abundantly proliferating green calli
